Series [1] deals with Taxus chinensis cell culture SS122-42. The experiment in a line: Enhancement of taxane biosynthesis by jasmonic acid and its methyl ester. The class given is cell-based. The following applies: 200 μM JMA or 89 μM MJS; Medium N + 10 μM NAA, 14 days, whole broth. The protocol:
Seven-day old cells of Taxus chinensis suspensions cultivated in Medium M (Table 2) were suction filtered aseptically using a sterile Buchner funnel fitted with a MIRACLOTH (Calbiochem) filter. Cells were inoculated into culture medium of the given composition indicated in Table 12, at a fresh weight cell density in the range of 15% to 20% (w/v). The cultures were incubated at 24±1° C. at 120 or 180 RPM (depending on the vessel size) on a gyratory shaker (1″ throw) in the dark. Evaporation was corrected for by adding sterile distilled water. Samples of whole broth (i.e., both extracellular and intracellular taxanes) were taken at periodic intervals, and were processed and analyzed by HPLC according to the methods outlined in Example 5.

The next series has as its system Taxus chinensis SS122-42. The experiment in a line: Enhancement of taxane biosynthesis by MDNA. It counts as cell-based. The following applies: 50 μM MDNA, 14 days, whole broth. The protocol:
Seven-day old cells of Taxus chinensis suspension culture SS122-42 cultivated in Medium M (Table 2) were suction filtered aseptically using a sterile Buchner funnel fitted with a […] (Calbiochem) filter. […] The vessels were incubated at 24±1° C. at 180 RPM on a gyratory shaker (1'' throw) in the dark. Treated cultures were sampled and analyzed using the methods described in Example 5 at various time points. Evaporation was corrected for by adding sterile distilled water at periodic intervals.

For series [2], the system named is Taxus chinensis cell culture SS122-13. The experiment in a line: Enhancement of taxane biosynthesis by jasmonic acid and its methyl ester. It counts as cell-based. Particulars: 89 μM MJS; Medium N + 10 μM NAA, 14 days, whole broth. Here is the method:
Seven-day old cells of Taxus chinensis suspensions cultivated in Medium M (Table 2) were suction filtered aseptically using a sterile Buchner funnel fitted with a […] (Calbiochem) filter. […] The cultures were incubated at 24±1° C. at 120 or 180 RPM (depending on the vessel size) on a gyratory shaker (1'' throw) in the dark. Evaporation was corrected for by adding sterile distilled water.

For series [3], the system named is Taxus chinensis cell line KS1A. Put plainly: Enhancement of taxane biosynthesis by silver compounds. It counts as cell-based. Here is the method: Analytical high performance liquid chromatography (HPLC) was performed on a high-carbon loaded diphenyl column (Supelco, 5 μM, 4.6 mm×25 cm) with an LDC Analytical binary gradient high pressure mixing system consisting of CM3500/CM3200 pumps, a CM4100 variable volume autosampler and an SM5000 photo diode array detector interfaced to a personal computer. Column temperature was regulated ay 35° C. with an Eldex CH150 column oven. Quantitative HPLC analysis of taxanes was accomplished using a binary gradient elution scheme as follows: […]
Seven-day old cells of Taxus chinensis suspension KS1A cultivated in Medium L (Table 2) were suction filtered aseptically using a sterile Buchner funnel fitted with a MIRACLOTH (Calbiochem) filter. Approximately 0.75 to 1 gram fresh weight cells were inoculated into 4 to 5 mL of culture medium of the given composition indicated in Table 10, to yield a fresh weight cell density in the range of 15% to 20% (w/v). The vessels were incubated at 25±1° C. at 120 RPM on a gyratory shaker (1″ throw) in the dark. Evaporation was corrected for by addition of sterile distilled water. Samples of whole broth (i.e., both extracellular and intracellular taxanes) were taken at periodic intervals, and were processed and analyzed by HPLC according to the methods outlined in Example 5.

Series [4] concerns Taxus spp. cell cultures. The experiment in a line: Elicitation of Taxus cell cultures by biotic and abiotic elicitors. Particulars: comparison among elicitors tested.
Series [5] concerns Taxus spp. cell cultures.
For series [6], the system named is Taxus chinensis cell culture SS6A-1224.
The subject of series [7] is Taxus chinensis cell culture SS122-13.
Series [8] concerns Taxus chinensis cell culture SS122-42.
Where [9] appears, read: culture medium I (Medium N + 10 μM NAA).
[10] abbreviates: culture medium II (medium I + 50 μM silver thiosulfate).

This note sets out measurements from patent US8338143B2, “Enhanced production of paclitaxel and taxanes by cell cultures of Taxus species” (Phyton Holdings, LLC, priority 1996, dated 2012).

Like-named read-outs stand apart in the source and are kept apart here.

Regarding `CC/C=C\C[C@H]1C(=O)CC[C@@H]1CC(=O)O` [JMA, Jasmonic acid], in series [1], the “Baccatin III” value turned out to be 4 mg/L, the “Other Taxanes” value is listed as 87 mg/L, the “Taxol (paclitaxel)” value amounted to 120 mg/L and the “Total Taxanes” value came out at 211 mg/L.

Consider `O=C(O)C=Cc1cc2c(cc1[N+](=O)[O-])OCO2` [MDNA, 3,4-methylenedioxy-6-nitrocinnamic acid], for which, in the series on Taxus chinensis SS122-42 (setting [9]), the “Baccatin III” value came out at 5 mg/L, the “Other Taxanes” value is 45 mg/L, the “Taxol (paclitaxel)” value is on record as 163 mg/L and the “Total Taxanes” value came out at 213 mg/L. In addition, in the series on Taxus chinensis SS122-42 (setting [10]), the “Baccatin III” value came out at 34 mg/L, the “Other Taxanes” value was determined as 89 mg/L, the “Taxol (paclitaxel)” value is 311 mg/L and the “Total Taxanes” value was 434 mg/L.

Turning to `CC/C=C\CC1C(=O)CCC1CC(=O)OC` (centres unmarked) [MJS, methyl jasmonate], in [2], the “Baccatin III” value came to 9 mg/L, the “Other Taxanes” value turned out to be 63 mg/L, the “Taxol (paclitaxel)” value worked out at 73 mg/L and the “Total Taxanes” value is 124 mg/L. In [1], the “Baccatin III” value turned out to be 3 mg/L, the “Other Taxanes” value is on record as 109 mg/L, the “Taxol (paclitaxel)” value came to 121 mg/L and the “Total Taxanes” value came out at 233 mg/L.

As to `O=C([O-])c1ccccc1.[Ag+]` [Silver benzoate], in series [3], the “Baccatin III” value is on record as 40 mg/L extracellular product, the “Taxol (paclitaxel)” value is 7 mg/L extracellular product and the “Total Taxanes” value was 47 mg/L extracellular product.

Take `O=S(=O)([O-])[O-].[Ag+].[Ag+]` [Silver sulfate]: in [3], the “Baccatin III” value is 61 mg/L extracellular product, the “Taxol (paclitaxel)” value is given as 7 mg/L extracellular product and the “Total Taxanes” value was 68 mg/L extracellular product.

For the compound `O=C(O)c1ccccc1` [benzoic acid], the “production increase by elicitation (taxane accumulation and secretion)” value in the series on Taxus spp. cell cultures [4] was “highest production increase”.

On to `COc1cc(/C=C/C(=O)O)ccc1O` [ferulic acid], for which, in the series with Taxus spp. cell cultures [4], the “production increase by elicitation (taxane accumulation and secretion)” value is “highest production increase”.

For the compound Chitosan, the “toxicity to cells / effect on cell viability” value with Taxus spp. cell cultures [5] was “toxic and causes permanent cell damage”.

In the case of Silver oxide, in series [3], the “Baccatin III” value was 43 mg/L extracellular product, the “Taxol (paclitaxel)” value is 18 mg/L extracellular product and the “Total Taxanes” value is listed as 61 mg/L extracellular product.

Regarding Silver thiosulfate, in series [6], the “Baccatin III” value was found to be 172 mg/L, the “Other Taxanes” value is recorded as 126 mg/L, the “Taxol (paclitaxel)” value turned out to be 86 mg/L and the “Total Taxanes” value was 384 mg/L. Further, in series [7], the “Baccatin III” value was 12 mg/L, the “Other Taxanes” value is 60 mg/L, the “Taxol (paclitaxel)” value turned out to be 103 mg/L and the “Total Taxanes” value is listed as 173 mg/L. In series [8], the “Baccatin III” value is reported as 4 mg/L, the “Other Taxanes” value is listed as 38 mg/L, the “Taxol (paclitaxel)” value worked out at 146 mg/L and the “Total Taxanes” value amounted to 188 mg/L. Also, in series [3], the “Baccatin III” value is recorded as 71 mg/L extracellular product, the “Taxol (paclitaxel)” value was 15 mg/L extracellular product and the “Total Taxanes” value was 86 mg/L extracellular product.

Take Toluenesulfonic acid silver salt: in series [3], the “Baccatin III” value was 39 mg/L extracellular product, the “Taxol (paclitaxel)” value is listed as 6 mg/L extracellular product and the “Total Taxanes” value is 45 mg/L extracellular product.
